Results taken from the supplement of paper PMC10307832.

Experiments:
Test in all cases: relative viability (nuclei count vs DMSO), 5 days (fraction); higher = more cells survive
Apatinib + Pemetrexed = compound: N#CC1(c2ccc(NC(=O)c3cccnc3NCc3ccncc3)cc2)CCCC1 [Apatinib] + Nc1nc2[nH]cc(CCc3ccc(C(=O)N[C@@H](CCC(=O)O)C(=O)O)cc3)c2c(=O)[nH]1 [Pemetrexed] (partner 0.2 µM)
Summary of the method: (§1)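 Lung cancer cell lines were seeded in 1536-well plates and dosed by pin tool the next day, with either a single drug or a fixed anchor-drug dose combined with five library-drug doses (not always all listed) spaced in √10 steps. Five days later, one step fixed the cells and stained their nuclei (final 0.05% Triton X-100, 1% formaldehyde, 1 ug/ml Hoechst), and nuclei were counted on 4× images. Relative viability is the nuclei count in treated wells divided by the count in vehicle wells, and each value is the median of duplicate plates.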

Metformin + Palbociclib = compound: CN(C)C(=N)NC(=N)N [Metformin] + CC(=O)c1c(C)c2cnc(Nc3ccc(N4CCNCC4)cn3)nc2n(C2CCCC2)c1=O [Palbociclib] (partner 0.5 µM)
Summary of the method: as §1

Apatinib + Pictilisib = compound: N#CC1(c2ccc(NC(=O)c3cccnc3NCc3ccncc3)cc2)CCCC1 [Apatinib] + CS(=O)(=O)N1CCN(Cc2cc3nc(-c4cccc5[nH]ncc45)nc(N4CCOCC4)c3s2)CC1 [Pictilisib] (partner 1 µM)
Summary of the method: as §1

Metformin + Alpelisib = compound: CN(C)C(=N)NC(=N)N [Metformin] + Cc1nc(NC(=O)N2CCC[C@H]2C(N)=O)sc1-c1ccnc(C(C)(C)C(F)(F)F)c1 [Alpelisib] (partner 2 µM)
Summary of the method: as §1

Cell Line	relative viability (Apatinib + Pemetrexed; first compound 0.08 µM)	relative viability (Apatinib + Pemetrexed; first compound 0.253 µM)	relative viability (Apatinib + Pemetrexed; first compound 0.8 µM)	relative viability (Apatinib + Pemetrexed; first compound 2.53 µM)	relative viability (Apatinib + Pemetrexed; first compound 8 µM)	relative viability (Metformin + Palbociclib; first compound 10 µM)	relative viability (Metformin + Palbociclib; first compound 31.62 µM)	relative viability (Metformin + Palbociclib; first compound 100 µM)	relative viability (Metformin + Palbociclib; first compound 316.23 µM)	relative viability (Metformin + Palbociclib; first compound 1000 µM)	relative viability (Apatinib + Pictilisib; first compound 0.08 µM)	relative viability (Apatinib + Pictilisib; first compound 0.253 µM)	relative viability (Apatinib + Pictilisib; first compound 0.8 µM)	relative viability (Apatinib + Pictilisib; first compound 2.53 µM)	relative viability (Apatinib + Pictilisib; first compound 8 µM)	relative viability (Metformin + Alpelisib; first compound 10 µM)	relative viability (Metformin + Alpelisib; first compound 31.62 µM)	relative viability (Metformin + Alpelisib; first compound 100 µM)	relative viability (Metformin + Alpelisib; first compound 316.23 µM)	relative viability (Metformin + Alpelisib; first compound 1000 µM)
NCI-H650	1.02	0.924	0.89	0.799	0.597	0.33	0.278	0.385	0.326	0.348	0.963	0.878	0.847	0.678	0.654	1.22	1.29	1.33	1.23	1.37
NCI-H2126	0.741	0.674	0.736	0.671	0.641	0.399	0.349	0.307	0.322	0.328	0.52	0.398	0.473	0.505	0.479	0.695	0.752	0.755	0.716	0.755
NCI-H1395	0.913	0.802	0.881	0.685	0.635	0.504	0.716	0.627	0.508	0.448	0.594	0.552	0.64	0.524	0.555	0.835	1.02	1.1	0.424	0.342
NCI-H1355	1.09	1.01	1	0.898	0.918	0.341	0.36	0.382	0.358	0.383	0.499	0.42	0.428	0.382	0.364	0.746	0.787	0.853	0.857	0.842
NCI-H1792	0.984	0.722	0.993	0.558	0.447	–	0.663	0.817	0.698	0.238	0.309	0.278	0.334	0.191	0.243	–	0.798	0.979	0.691	0.869
NCI-H596	0.541	0.539	0.494	0.405	0.442	–	–	–	–	–	0.419	0.402	0.353	0.32	0.383	0.627	0.652	0.655	0.547	0.577
NCI-H23	0.747	0.855	0.677	0.57	0.439	0.583	0.563	0.495	0.508	0.553	0.547	0.522	0.458	0.426	0.492	0.825	0.941	0.696	0.715	0.901
HCC-15	0.245	0.225	0.217	0.192	0.167	0.726	0.807	0.716	0.562	0.831	0.77	0.786	0.693	0.706	0.71	0.921	1.07	1.03	0.659	0.919
HCC-44	0.677	0.626	0.616	0.63	0.521	–	0.917	0.959	0.93	0.887	0.639	0.686	0.584	0.548	0.659	0.782	0.825	0.931	0.711	0.813
COR-L23	0.194	0.191	0.192	0.199	0.177	0.237	0.289	0.218	0.208	0.249	0.966	0.777	0.788	0.65	0.658	0.633	0.721	0.72	0.564	0.7
NCI-H1563	0.622	0.765	0.795	0.708	0.681	–	–	–	–	–	0.644	0.656	0.62	0.644	0.632	1.06	0.914	1.06	0.827	0.72
NCI-H1703	–	–	–	–	–	–	–	–	–	–	0.239	0.272	0.198	0.222	0.221	0.491	0.728	0.474	0.512	0.368
NCI-H1650	0.386	0.347	0.325	0.37	0.378	0.316	0.381	0.424	0.229	0.305	0.355	0.658	0.58	0.526	0.477	–	–	–	–	–
NCI-H1299	–	–	–	–	–	–	–	–	–	–	0.882	0.88	0.738	0.646	0.406	0.991	0.998	1.05	0.994	0.933
ChaGo-K-1	0.27	0.249	0.263	0.24	0.245	0.92	0.897	0.957	0.716	0.967	–	0.999	0.721	0.638	0.725	–	–	–	–	–
ABC-1	–	–	–	–	–	–	0.9	0.62	0.592	0.279	–	1.01	0.637	0.752	0.552	–	1.08	0.999	0.745	0.349
NCI-H522	0.986	0.975	0.993	0.66	0.748	1.7	1.24	1.06	1.08	1.21	–	–	–	–	–	–	–	–	–	–
NCI-H2342	0.731	0.73	0.744	0.733	0.737	–	0.681	0.548	0.522	0.519	–	–	–	–	–	–	–	–	–	–
A549	–	–	–	–	–	–	–	–	–	–	0.651	0.626	0.421	0.488	0.406	0.766	0.879	0.739	0.672	0.611
EBC-1	–	–	–	–	–	–	–	–	–	–	0.36	0.345	0.299	0.247	0.157	0.866	0.989	0.925	0.941	0.947
